Experimental findings from patent US20220220472A1, “TARGETED THERAPY” (The Regents of the University of Michigan, priority 2019, published 2022) are described below.

One data set relates to HCT116 cells. Briefly: Clonogenic survival of HCT116 cells with Dox-inducible dCas9-Fok1-GFP and gRNA pairs. The class given is cell-based. To be noted: Nu7441 200 nM, 12 days, no gRNA. The method, then: Cells were plated and treated with different concentrations of Dox for 12 days. Cells were then fixed and stained, colonies were counted, and colony numbers were reported as a percentage of control cells not treated with Dox. […] Cells were plated and treated with different concentrations of Dox for 12 days. Cells were then fixed and stained and colonies counted and expressed as a percentage of control cells not treated with Dox. In FIG. 5A and FIG. 5B, the gRNA pairs target two CRJs on chromosome 3 (3ab and 3cd), one on chromosome 5 (5ab), and one on the X chromosome (xab).
During the development of embodiments of the technology provided herein, experiments were conducted to evaluate use of a dCas9-Fok1 fusion protein and to produce a dCas9-Fok1 fusion protein further comprising a GFP domain to provide a tool to detect expression in cells. Furthermore, the dCas9-Fok1-GFP fusion and the gRNA genes were placed under the regulation of a tet-inducible promoter for performing experiments to establish the cells in culture or as xenografts and then induce expression by addition of doxycycline (Dox). […]
HCT116 cells with stable expression of dCas9-Fok1-GFP, 3ab3cd/Fok1-dcas9-GFP, 5ab3cd/Fok1-GFP, and 3abxab/dCas9-GFP were maintained in DMEM containing 10% FBS. […] Clonogenic survival colonies with 50 cells or more were counted.

Data set [1] concerns UMUC-3 bladder cancer cells. Briefly: Clonogenic survival assay in UMUC-3 bladder cancer cells. Format: cell-based, human. To be noted: doxycycline induction plus Nu7441. From the text: FIG. 6C is a series of bar plots showing data collected from an […] clonogenic survival assay in the UMUC-3 bladder cells shown schematically in FIG. 6B. […] Further, treatments with the DNA-PK inhibitor Nu7441 improved the toxicity of the CRJ-targeting gRNAs (bottom row). The data are expressed as the mean and standard deviation of three biological replicates. Numbers (3a & X; 7 & 2; 7 & 4; 19 & 2; and 19 & 4) indicate the combinations of gRNA used for the experiment.
First, CRJs were identified in bladder cancer cells (see, e.g., FIG. 6A). Using sequence information from the CRJs identified in bladder cancer cells, gRNA were designed and UMUC-3 (ATCC Accession CRL-1749) cell lines were produced comprising doxycycline-inducible expression of Fok1-dCas9 and the CRJ-targeting gRNAs. gRNA sequences are provided in Table 2.
Six UMUC-3 bladder cancer sublines were generated—Two control cell lines were produced, one expressing no gRNAs and one expressing 2 pairs of non-targeting gRNAs; four experimental cell lines were produced expressing Fok1-dCas9-GFP and two pairs of CRJ-targeting gRNAs under the regulation of doxycycline (see, e.g., FIG. 6B). CRJ-specific DSBs were induced in the cells (e.g., using doxycycline) and toxicity was monitored to determine if interfering with DSB repair leads to increased killing of bladder cancer cells (see, e.g., FIG. 6C, top row). […]

The test system of a further data set is HCT116 xenografts. Briefly: HCT116 xenograft tumor growth in mice. Format: in vivo. The following applies: water with Dox and Nu7441. The method, then:
In these experiments, HCT116 cells are injected into mice and each group is split into three treatment groups that receive ether regular water, water with Dox, or water with Dox and Nu7441.
Experiments are conducted in which three of the HCT116 cell lines with dox-inducible expression of dCas9-Fok1-GFP with and without CRJ-targeting gRNAs are used to form xenografts in the flank of mice. In these experiments, one million HCT116 cells in a 100 μl Matrigel suspension are injected s.c. into the hind leg of the mice (a total of 54 NOD/SCID or athymic BALB/C, 10-12 weeks old). When tumors reach sizes of 50-150 mm^3, each group is split into three groups (see, e.g., FIG. 2) where they receive ether regular water, water with Dox, or water with Dox and Nu7441. Tumor measurements are taken daily and mouse weights are recorded 3 times weekly. As the control tumors reach the predetermined tumor size limit, animals are euthanized. At this time, the tumors are removed, weighed, and documented (e.g., using digital imaging) and used for downstream analyses. Downstream analyses include measuring expression of dCas9-Fok1-GFP (green fluorescence) and γH2AX ChIP-PCR with primers for sequences near the CRJ and sequences far away as a control.

A further data set has as its system UMUC-3 orthotopic tumors. The experiment in a line: UMUC-3 orthotopic xenograft tumor growth in NOD-scid mice. Format: in vivo. The following applies: UMUC-3 in NODscid mice; doxycycline plus Nu7441. The method, then: FIG. 7 is a schematic drawing showing an in vivo experiment comparing tumor growth between UMUC-3 cells expressing non-targeting gRNAs (left) and UMUC-3 cells expressing CRJ-targeting gRNAs (right). These cell lines are engineered to express luciferase for bioluminescent monitoring. Each mouse group represents 10 NODscid mice. […] Accordingly, further experiments are conducted to grow these cell lines as orthotopic xenografts in NOD-scid mice and to monitor tumor growth (e.g., using bioluminescence) in vivo as the CRISPR reagents are induced by doxycycline (e.g., provided in food and/or water). UMUC-3 cells are grown as orthotopic tumors in NOD-scid mice, animals are given doxycycline to induce Fok1-dCas9 and the two pairs of gRNAs in the cancer cells, and the effects on tumor growth are assessed by bioluminescence. […] The other cell line expresses CRJ-targeting gRNAs following doxycycline exposure. Experiments are conducted with or without a DNA-PK inhibitor (e.g., Nu7441) and with and without doxycycline in the drinking water and/or in the food. 10 animals are used per group with 8 groups for a total of 80 animals (FIG. 7).

With `O=c1cc(N2CCOCC2)oc2c(-c3cccc4c3sc3ccccc34)cccc12` [Nu7441], in the data set on HCT116 cells, the “effect of Nu7441 on clonogenicity of cells expressing dCas9-Fok1-GFP alone” value is “did not affect clonogenicity”. Further, the “toxicity / survival with DNA-PK inhibitor Nu7441” value in data set [1] is “augmented this effect”. Also, the “suppression of tumor growth with Nu7441” value in the data set with HCT116 xenografts is given as “Suppression of tumor growth is augmented”. The “tumor growth inhibition with Nu7441” value with UMUC-3 orthotopic tumors is recorded as “augments tumor growth inhibition”.
